The compounds below were run against Isoform 2 of Hepatocyte growth factor receptor (2) (Homo sapiens, UniProt P08581) (assay: c-Met Z-LYTE Assay). Conditions: pH 7; 25 °C.
Experimental: The c-Met kinase activity of five target compounds and three positive compounds were evaluated using standard Z-LYTE Assays (fluorescence resonance energy transfer, FRET). The test compounds or reference controls were dissolved indimethyl sulfoxide (DMSO) as stock solution. […] 5 µL of the detectionreagents A (Invitrogen) was added at final concentrations of 64-fold dilution. The plates were incubated at room temperature for 60 min and then read in the Envision plate reader (PerkinElmer).

Isoform 2 of Hepatocyte growth factor receptor (2), sequence (P08581 as listed by the source): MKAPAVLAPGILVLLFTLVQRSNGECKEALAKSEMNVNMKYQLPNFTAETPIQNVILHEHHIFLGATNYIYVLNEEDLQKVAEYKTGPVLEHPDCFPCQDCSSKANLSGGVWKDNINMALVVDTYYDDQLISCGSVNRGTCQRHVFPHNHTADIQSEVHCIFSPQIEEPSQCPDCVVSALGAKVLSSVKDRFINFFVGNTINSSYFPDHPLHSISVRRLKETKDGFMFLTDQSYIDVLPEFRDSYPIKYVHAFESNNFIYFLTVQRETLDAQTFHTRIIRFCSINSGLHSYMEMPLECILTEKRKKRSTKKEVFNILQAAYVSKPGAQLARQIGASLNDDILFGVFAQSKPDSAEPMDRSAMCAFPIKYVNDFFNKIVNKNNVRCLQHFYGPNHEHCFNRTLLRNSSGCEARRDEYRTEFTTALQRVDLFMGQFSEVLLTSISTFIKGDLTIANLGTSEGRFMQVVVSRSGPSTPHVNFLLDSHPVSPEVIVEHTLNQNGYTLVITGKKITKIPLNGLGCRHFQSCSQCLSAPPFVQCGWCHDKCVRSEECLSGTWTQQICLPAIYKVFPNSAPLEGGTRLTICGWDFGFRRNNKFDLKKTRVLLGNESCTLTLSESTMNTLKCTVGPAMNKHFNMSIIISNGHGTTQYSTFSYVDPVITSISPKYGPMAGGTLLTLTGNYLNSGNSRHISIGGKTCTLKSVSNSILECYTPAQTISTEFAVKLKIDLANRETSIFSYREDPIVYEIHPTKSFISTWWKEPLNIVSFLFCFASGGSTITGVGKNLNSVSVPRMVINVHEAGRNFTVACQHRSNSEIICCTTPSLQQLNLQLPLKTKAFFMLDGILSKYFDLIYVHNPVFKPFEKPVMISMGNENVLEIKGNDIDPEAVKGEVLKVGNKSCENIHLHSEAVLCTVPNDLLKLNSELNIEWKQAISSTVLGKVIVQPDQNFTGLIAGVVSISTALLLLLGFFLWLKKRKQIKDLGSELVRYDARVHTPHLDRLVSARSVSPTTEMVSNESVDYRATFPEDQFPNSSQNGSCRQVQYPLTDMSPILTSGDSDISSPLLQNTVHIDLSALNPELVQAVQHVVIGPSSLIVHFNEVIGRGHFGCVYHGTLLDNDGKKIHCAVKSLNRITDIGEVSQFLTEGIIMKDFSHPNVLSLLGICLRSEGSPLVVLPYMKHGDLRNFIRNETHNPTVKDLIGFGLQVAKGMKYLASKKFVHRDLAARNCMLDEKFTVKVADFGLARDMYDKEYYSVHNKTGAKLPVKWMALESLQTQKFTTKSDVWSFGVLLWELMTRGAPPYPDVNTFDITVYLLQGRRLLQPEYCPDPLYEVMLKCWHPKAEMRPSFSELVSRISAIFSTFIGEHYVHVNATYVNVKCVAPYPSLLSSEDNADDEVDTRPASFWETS

IC50 | SMILES
47.4 nM | Fc1ccc(Cl)c(C2(c3n[nH]c4ncc(-c5cnn(C6CCNCC6)c5)cc34)CC2)c1Cl [3-(1-(2,6-dichloro-3-fluorophenyl)cyclopropyl)-5-(1-(piperidin-4-yl)-1H-pyrazol-4-yl)-1H-pyrazolo[3,4-b]pyridine (10)]
982 nM | CC(c1c(Cl)ccc(F)c1Cl)c1c(Cl)[nH]c2ncc(-c3cnn(C4CCNCC4)c3)cc12 (centres undefined) [4-(4-{2-chloro-3-[1-(2,6-dichloro-3-fluorophenyl)ethyl]-1H-pyrrolo[2,3-b]pyridin-5-yl}-1H-pyrazol-1-yl)piperidine (7)]
286 nM | Cc1[nH]c2ncc(-c3cnn(C4CCNCC4)c3)cc2c1C(C)c1c(Cl)ccc(F)c1Cl (centres undefined) [3-(1-(2,6-dichloro-3-fluorophenyl)ethyl)-2-methyl-5-(1-(piperidin-4-yl)-1H-pyrazol-4-yl)-1H-pyrrolo[2,3-b]pyridine (6)]
2 nM | O=C(NCc1ccc(F)cc1)Nc1ccc(Oc2ccnc3[nH]c(-c4cccnc4)cc23)c(F)c1 [3-(3-fluoro-4-{[2-(pyridin-3-yl)-1H-pyrrolo[2,3-b]pyridin-4-yl]oxy}phenyl)-1-[(4-fluorophenyl)methyl]urea (2a)]
< 100 nM | CC(c1c(Cl)ccc(F)c1Cl)c1c[nH]c2ncc(-c3cnn(C4CCNCC4)c3)cc12 (centres undefined) [4-(4-{3-[1-(2,6-dichloro-3-fluorophenyl)ethyl]-1H-pyrrolo[2,3-b]pyridin-5-yl}-1H-pyrazol-1-yl)piperidine (1)]

The next lines start with the compound.

SMILES | IC50
CC(Sc1cc(-c2cnn(C3CCNCC3)c2)cnc1N)c1c(Cl)ccc(F)c1Cl (centres undefined) [3-{[1-(2,6-dichloro-3-fluorophenyl)ethyl]sulfanyl}-5-[1-(piperidin-4-yl)-1H-pyrazol-4-yl]pyridin-2-amine (11b)] | 51.2 nM
Fc1ccc(Cl)c(Sc2n[nH]c3ncc(-c4cnn(C5CCNCC5)c4)cc23)c1Cl [3-((2,6-dichloro-3-fluorophenyl)thio)-5-(1-(piperidin-4-yl)-1H-pyrazol-4-yl)-1H-pyrazolo[3,4-b]pyridine (9)] | 22.8 nM
O=C(NCc1ccc(F)cc1)Nc1ccc(Oc2ccnc3[nH]ccc23)c(F)c1 [3-(3-fluoro-4-{1H-pyrrolo[2,3-b]pyridin-4-yloxy}phenyl)-1-[(4-fluorophenyl)methyl]urea (2)] | 11 nM
c1ccc(-c2cnc3nnc(C4(c5ccc6ncccc6c5)CC4)n3n2)cc1 [6-(1-{6-phenyl-[1,2,4]triazolo[4,3-b][1,2,4]triazin-3-yl}cyclopropyl)quinoline (5)] | 13 nM

From BindingDB's records for doi:10.1016/j.bioorg.2016.02.009 (Tianjin University of Science and Technology, 2016)
